Source: PMC5107130 (Pharmacological Research, 2016)
Several values for one entry are separate records, joined by “and”; a condition that tells them apart may be missing. Identical values can stand only once. Like-named read-outs stand apart in the source and are kept apart here.

Tests used:
[1] = target: T1, Recombinant full length human CBS (Homo sapiens, UniProt P35520); assay: AzMC fluorescence assay of CBS-derived H2S production; type: biochemical; conditions: for Confirmation (% inhibition of CBS-induced AzMC fluorescence) / % inhibition of CBS-induced AzMC fluorescence: mean ± SEM, n = 3; for IC50: read-out: IC50, inhibition of recombinant CBS (CBS-induced AzMC fluorescence), cell-free, 2 mM L-cysteine and homocysteine; for % inhibition of CBS-induced AzMC fluorescence: copper compounds
T1 sequence (P35520 1-551): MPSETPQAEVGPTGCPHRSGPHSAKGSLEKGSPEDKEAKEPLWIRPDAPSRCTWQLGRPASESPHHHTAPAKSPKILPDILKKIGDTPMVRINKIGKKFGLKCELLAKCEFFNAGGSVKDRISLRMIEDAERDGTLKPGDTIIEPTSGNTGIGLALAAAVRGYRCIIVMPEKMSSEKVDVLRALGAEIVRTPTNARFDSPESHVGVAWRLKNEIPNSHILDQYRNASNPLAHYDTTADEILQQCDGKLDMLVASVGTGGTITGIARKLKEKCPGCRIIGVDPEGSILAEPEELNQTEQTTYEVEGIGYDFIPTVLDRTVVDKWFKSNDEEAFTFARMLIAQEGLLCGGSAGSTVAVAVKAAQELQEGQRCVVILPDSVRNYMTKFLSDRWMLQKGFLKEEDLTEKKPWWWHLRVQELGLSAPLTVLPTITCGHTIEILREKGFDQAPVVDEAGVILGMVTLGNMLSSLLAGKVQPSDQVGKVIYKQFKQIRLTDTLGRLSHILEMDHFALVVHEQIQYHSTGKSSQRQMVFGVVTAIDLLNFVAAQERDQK

[2] = Counterscreen: AzMC fluorescence signal generated by the H2S donor GYY4137; conditions: mean ± SEM, n = 3; for % inhibition of GYY4137-induced AzMC fluorescence: copper compounds
[3] = read-out: Confirmation (% inhibition of CBS-induced AzMC fluorescence), 30 μM, mean ± SEM, n = 3
[4] = read-out: Initial screen (% inhibition of CBS-induced AzMC fluorescence), 30 μM
[5] = read-out: % inhibition of recombinant CBS activity
[6] = read-out: Confirmation (% inhibition of CBS-induced AzMC fluorescence)
[7] = read-out: Initial screen (% inhibition of CBS-induced AzMC fluorescence)

Row | Molecule | inhibition at 30 µM [1, 3] | inhibition at 30 µM [1, 4] | Initial screen (% inhibition of CBS-induced AzMC fluorescence) ([1]; 30 μM) | Confirmation (% inhibition of CBS-induced AzMC fluorescence) ([1]; 30 μM) | Confirmation (% inhibition of GYY4137-induced AzMC fluorescence) ([2]; 30 μM) | further results
1 | COC1=C(OC)C(=O)c2ccccc2C1=O [2,3-Dimethoxy-1,4-naphthoquinone] | 53 ± 1% | 49% | – | – | 51 ± 4% | –
2 | NNCc1cccc(O)c1 [3-hydroxybenzylhydrazine] | – | – | – | – | – | inhibition at 10 µM [1, 5]: 24%; inhibition at 30 µM [1, 5]: 37%; inhibition at 100 µM [1, 5]: 68%
3 | C[C@@](Cc1ccc(O)c(O)c1)(NN)C(=O)O [Carbidopa] | – | – | – | – | – | inhibition at 100 µM ([1]; read-out: % inhibition of recombinant CBS activity, 100 μM, standard assay conditions, freshly dissolved): 6%
4 | CC(C)/N=c1\cc2n(-c3ccc(Cl)cc3)c3ccccc3nc-2cc1Nc1ccc(Cl)cc1 [Clofazimine] | 30 ± 7% | 47% | – | – | 28 ± 5% | –
5 | Cc1cc(C(C#N)c2ccc(Cl)cc2)c(Cl)cc1NC(=O)c1cc(I)cc(I)c1O (stereo not drawn) [Closantel] | – | – | – | – | 31 ± 2% | inhibition at 30 µM [1, 6]: 25 ± 5%; inhibition at 30 µM [1, 7]: 43%
6 | O=[N+]([O-])[O-].O=[N+]([O-])[O-].[Cu+2] [Cu(NO2)2, copper(II) nitrate] | – | – | – | – | – | IC50 [1]: ~200 nM
7 | CC(=O)[O-].CC(=O)[O-].[Cu+2] [CuAc, copper(II) acetate] | – | – | – | – | – | % inhibition of CBS-induced AzMC fluorescence ([1]; 0.1 μM): 39 ± 1%; % inhibition of CBS-induced AzMC fluorescence ([1]; 0.3 μM): 66 ± 1%; % inhibition of CBS-induced AzMC fluorescence ([1]; 1 μM): 92 ± 1%; IC50 [1]: ~200 nM; % inhibition of GYY4137-induced AzMC fluorescence ([2]; 0.1 μM): 2 ± 2%; % inhibition of GYY4137-induced AzMC fluorescence ([2]; 0.3 μM): 12 ± 1%; % inhibition of GYY4137-induced AzMC fluorescence ([2]; 1 μM): 17 ± 1%
8 | COc1cc2cc3c4c(cc(OC)c(OC)c4c2cc1OC)CCN3C [Dehydroglaucine] | – | – | – | – | – | Initial screen (% inhibition of CBS-induced AzMC fluorescence) ([1]; 17 μM): 62% (17 μM); Confirmation (% inhibition of CBS-induced AzMC fluorescence) ([1]; 17 μM): 82 ± 4 (17 μM) %; Confirmation (% inhibition of GYY4137-induced AzMC fluorescence) ([2]; 17 μM): 57 ± 8 (17 μM) %
9 | CC1=C(C2=C(C)C(=O)c3c(c(C=O)c(O)c(O)c3C(C)C)C2=O)C(=O)c2c(C=O)c(O)c(O)c(C(C)C)c2C1=O [Gossypolone] | – | – | – | – | – | inhibition at 12 µM [1, 6]: 30 ± 5%; inhibition at 12 µM [1, 7]: 57%; Confirmation (% inhibition of GYY4137-induced AzMC fluorescence) ([2]; 12 μM): 25 ± 4 (12 μM) %
10 | O=C1C=CC(=O)c2c(O)cccc21 [Juglone] | – | – | – | – | 61 ± 3% | –
11 | O=C1C(SCCO)=C(SCCO)C(=O)c2ccccc21 [NSC 95397, 2,3bis[(2-Hydroxyethyl)thio]-1,4-naphthoquinone] | 58 ± 8% | 68% | 70% | 59 ± 8% | 58 ± 1% | –
12 | CC(=O)[O][Hg][c]1ccccc1 [Phenylmercuric acetate] | – | – | 69% and 52% | 50 ± 6% and 29 ± 4% | 59 ± 2% and 32 ± 4% | –
13 | CC(=O)[C@H]1CC[C@H]2[C@@H]3CCC4=CC(=O)CC[C@]4(C)[C@H]3CC[C@]12C [Progesterone] | 75 ± 3% | 68% | – | – | 64 ± 1% | –
14 | Cc1cc(/C=C/c2ccc3cc(N(C)C)ccc3[n+]2C)c(C)n1-c1ccccc1 [Pyrvinium pamoate] | – | 49% | – | – | 36 ± 3% | –
15 | N.N.N.N.N.N.N.N.N.N.N.N.N.N.[Cl-].[Cl-].[Cl-].[Cl-].[Cl-].[Cl-].[O-2].[O-2].[Ru+3].[Ru+3].[Ru+4] [Ruthenium red] | – | – | 72% | 72 ± 6% | 72 ± 3% | –
16 | N#C/C(=C\c1ccc(O)c(O)c1)C(=O)NCCCNC(=O)/C(C#N)=C/c1ccc(O)c(O)c1 [Tyrphostin AG 537] | – | – | 49% | 42 ± 1% | 48 ± 2% | –

More lines, main results first:

Row | inhibition at 30 µM [1, 3] | inhibition at 30 µM [1, 4] | Initial screen (% inhibition of CBS-induced AzMC fluorescence) ([1]; 30 μM) | Confirmation (% inhibition of CBS-induced AzMC fluorescence) ([1]; 30 μM) | Molecule | Confirmation (% inhibition of GYY4137-induced AzMC fluorescence) ([2]; 30 μM) | further results
17 | – | – | 72% | 58 ± 3% | NC(N)=NC(=O)c1nc(Cl)c(N2CCCCCC2)nc1N [5-(N,N-hexamethylene)amiloride] | 54 ± 4% | –
18 | – | – | 69% | 58 ± 4% | O=S(=O)([O-])c1cc(N=C=S)ccc1C=Cc1ccc(N=C=S)cc1S(=O)(=O)[O-].[Na+].[Na+] [DIDS, 4,4′-diisothiocyanostilbene-2,2′-sufonic acid sodium salt] | 56 ± 5% | –
19 | 48 ± 5% | 58% | – | – | O=Nc1ccc(O)c2ncccc12 [NSC 3852, 5-Nitroso-8-quinolinol] | 47 ± 5% | –
20 | 55 ± 4% | 48% | – | – | O=C(N/N=C/c1ccc([N+](=O)[O-])o1)c1ccc(O)cc1 [Nifuroxazide] | 50 ± 2% | –
21 | 54 ± 2% | 52% | – | – | NC(=O)N/N=C/c1ccc([N+](=O)[O-])o1 [Nitrofurazone] | 48 ± 5% | –
22 | 59 ± 3% | 55% | – | – | Cc1cc2nc3c(=O)[nH]c(=O)nc-3n(C)c2cc1C=O [Ro-08-2750, 2,3,4,10-Tetrahydro-7,10-dimethyl-2,4-dioxobenzo[g]pteridine-8-carboxaldehyde] | 69 ± 8% | –
23 | – | – | 80% | 97 ± 1% | Chlorophyllide Cu complex Na salt | 78 ± 3% | Initial screen (% inhibition of CBS-induced AzMC fluorescence) ([1]; 30 μM, listed as Chlorophyllide cu complex Na salt): 82%
24 | – | – | 69% | 41 ± 5% | Verteporfin | 38 ± 5% | –
